We go through 7 molecules from US12630600B2 (MEDIMMUNE LIMITED, priority 2022, dated 2026).

Where two headings read alike, the source gives them in different places. Starred links: 1 amine or outer side, 2 acyl side, 3 side chain; linkers in the order of their positions; H or OH if unused. Non-standard residues stand in square brackets, D forms with d. Residues, ends and D or L forms follow the SMILES beside them. Groups on a side chain read outwards from the residue. *: point of attachment. C20 diacid = O=C(O)CCCCCCCCCCCCCCCCCCC(=O)*; C18 diacid = O=C(O)CCCCCCCCCCCCCCCCC(=O)*; γGlu = O=C(O)[C@H](CCC(=O)[*:2])N[*:1]; Stearoyl = CCCCCCCCCCCCCCCCCC(=O)*; αMeF = C[C@](N)(Cc1ccccc1)C(=O)O; PEG2 = NCCOCCOCCC(=O)O; AEEA = NCCOCCOCC(=O)O; Aib = CC(C)(N)C(=O)O

In general, EC50 refers to the concentration at which the effect is half-maximal.

Experiment [1] has as its target T1, human glucagon receptor (hGCGR) (Homo sapiens, UniProt P47871).
T1 construct: expressed in transfected cells; host or cells: CHO
Put plainly: cAMP production (HTRF) in CHO cells expressing human glucagon receptor. In kind it is cell-based. The settings on record: read-out: hGluc-R EC50. As to the method:
Cells were re-suspended in assay buffer at a batch-dependent optimized concentration (typically hGLP-1R cells at 1×10^5 cells/mL, hGCGR cells at 2×10^5 cells/mL).
Cells were added to the assay plate using a multidrop dispenser and incubated at room temperature for 30 minutes before measuring the cAMP level using a cAMP dynamic 2 homogeneous time resolved Fluorescence (HTRF) kit (Cisbio Bioassays #62AM4PEJ) following the two-step protocol as per manufacturer's recommendations. In brief, anti-cAMP cryptate (donor fluorophore) and cAMP-d2 (acceptor fluorophore) were made up separately by diluting each 1 in 20 in conjugate and lysis buffer provided in the kit. Anti-cAMP cryptate was added to all wells of the assay plate, followed by cAMP-d2 added to all wells except non-specific binding (NSB) wells (to which conjugate and lysis buffer was added).
Data was transformed to % Delta F as described in the manufacturer's guidelines and analyzed by 4-parameter logistic fit to determine EC50 values.
A general note: Changes in cAMP serve as a functional read-out for many G protein-coupled receptors.

The target of experiment [2] is T2, human GLP-1 receptor (hGLP-1R) (Homo sapiens, UniProt P43220).
T2 construct: expressed in transfected cells; host or cells: CHO
Nature of the experiment: cAMP production (HTRF) in CHO cells expressing human GLP-1 receptor. The experiment is classed as cell-based. Conditions: Table 8; % GLP-1R activity relative to GLP-1 / % GlucR activity relative to glucagon.

[3] abbreviates: Table 6, modification at position 17, CHO cells expressing hGCGR, geometric mean.

T1 sequence (P47871 26-477): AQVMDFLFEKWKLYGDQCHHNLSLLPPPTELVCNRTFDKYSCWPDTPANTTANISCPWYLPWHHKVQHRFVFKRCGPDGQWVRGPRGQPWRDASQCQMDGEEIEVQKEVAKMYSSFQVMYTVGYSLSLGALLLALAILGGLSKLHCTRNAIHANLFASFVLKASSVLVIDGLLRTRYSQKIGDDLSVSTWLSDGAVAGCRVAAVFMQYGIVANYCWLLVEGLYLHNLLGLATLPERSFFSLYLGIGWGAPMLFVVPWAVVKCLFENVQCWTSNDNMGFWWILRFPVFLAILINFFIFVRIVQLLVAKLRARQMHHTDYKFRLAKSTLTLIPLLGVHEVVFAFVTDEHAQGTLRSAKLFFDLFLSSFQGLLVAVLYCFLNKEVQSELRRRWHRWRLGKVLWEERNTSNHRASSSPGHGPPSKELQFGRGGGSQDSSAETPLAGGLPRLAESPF
T2 sequence (P43220 24-463): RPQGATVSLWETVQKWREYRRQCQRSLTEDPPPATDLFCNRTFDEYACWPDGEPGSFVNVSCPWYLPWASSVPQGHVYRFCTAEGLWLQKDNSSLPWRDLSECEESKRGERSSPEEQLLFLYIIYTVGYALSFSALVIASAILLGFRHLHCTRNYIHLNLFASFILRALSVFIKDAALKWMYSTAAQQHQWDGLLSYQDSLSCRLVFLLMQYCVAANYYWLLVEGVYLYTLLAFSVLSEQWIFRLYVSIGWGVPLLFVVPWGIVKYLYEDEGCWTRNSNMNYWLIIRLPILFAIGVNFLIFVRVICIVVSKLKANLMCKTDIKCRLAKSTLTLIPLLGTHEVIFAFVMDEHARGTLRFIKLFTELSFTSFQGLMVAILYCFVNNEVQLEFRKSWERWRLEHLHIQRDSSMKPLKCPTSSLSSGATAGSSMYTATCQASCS

As for `CC(C)C[C@H](NC(=O)[C@H](Cc1c[nH]c2ccccc12)NC(=O)[C@H](CCCNC(=N)N)NC(=O)[C@@H](NC(=O)[C@H](Cc1ccccc1)NC(=O)[C@H](CC(=O)O)NC(=O)[C@H](CCCNC(=N)N)NC(=O)[C@H](C)NC(=O)[C@H](CCCNC(=N)N)NC(=O)[C@H](CCCCNC(=O)CC[C@H](NC(=O)CC[C@H](NC(=O)COCCOCCNC(=O)COCCOCCNC(=O)CC[C@H](NC(=O)CC[C@H](NC(=O)CCCCCCCCCCCCCCCCC(=O)O)C(=O)O)C(=O)O)C(=O)O)C(=O)O)NC(=O)[C@H](CO)NC(=O)[C@H](CC(=O)O)NC(=O)[C@H](CC(C)C)NC(=O)[C@](C)(Cc1ccccc1)NC(=O)[C@H](CCCCN)NC(=O)[C@H](CO)NC(=O)[C@@H](NC(=O)[C@H](CC(=O)O)NC(=O)[C@H](CO)NC(=O)[C@@H](NC(=O)[C@H](Cc1ccccc1)NC(=O)[C@@H](NC(=O)CNC(=O)[C@H](CCC(N)=O)NC(=O)C(C)(C)NC(=O)[C@@H](N)Cc1c[nH]cn1)[C@@H](C)O)[C@@H](C)O)C(C)C)C(C)C)C(=O)N[C@@H](CC(C)C)C(=O)N[C@@H](CCC(=O)O)C(=O)NC(C)(C)C(=O)NCC(=O)O` [Peptide 144] (H-H[Aib]QGTFTSDVSK[αMeF]LDSK([γGlu-γGlu-AEEA-AEEA-γGlu-γGlu-C18 diacid])RARDFVRWLLE[Aib]G-OH; N-terminus assumed), in experiment [1] (setting [3]), the EC50 worked out at 702 pM.

On to `CCCCCCCCCCCCCCCCCC(=O)N[C@@H](CCC(=O)N[C@@H](CCC(=O)NCCOCCOCCC(=O)NCCOCCOCCC(=O)NCCCC[C@H](NC(=O)[C@H](CO)NC(=O)[C@H](CC(=O)O)NC(=O)[C@H](CC(C)C)NC(=O)[C@](C)(Cc1ccccc1)NC(=O)[C@H](CCCCN)NC(=O)[C@H](CO)NC(=O)[C@@H](NC(=O)[C@H](CC(=O)O)NC(=O)[C@H](CO)NC(=O)[C@@H](NC(=O)[C@](C)(Cc1ccccc1)NC(=O)[C@H](CO)NC(=O)CNC(=O)[C@H](CCC(N)=O)NC(=O)[C@H](CO)NC(=O)[C@@H](N)Cc1c[nH]cn1)[C@@H](C)O)C(C)C)C(=O)N[C@@H](C)C(=O)N[C@@H](C)C(=O)N[C@@H](CCC(N)=O)C(=O)N[C@@H](CC(=O)O)C(=O)N[C@@](C)(Cc1ccccc1)C(=O)N[C@H](C(=O)N[C@@H](CCC(N)=O)C(=O)NC(C)(C)C(=O)N[C@H](C(=O)N[C@@H](C)C(=O)N[C@@H](CC(N)=O)C(=O)N[C@H](C(N)=O)[C@@H](C)O)[C@@H](C)CC)C(C)C)C(=O)O)C(=O)O` [Peptide 82] (H-HSQGS[αMeF]TSDVSK[αMeF]LDSK([PEG2-PEG2-γGlu-γGlu-Stearoyl])AAQD[αMeF]VQ[Aib]IANT-NH2; N-terminus assumed), for which the EC50 in experiment [1] (setting [3]) came to 7.77 pM.

In the case of `CCCCCCCCCCCCCCCC(=O)N[C@@H](CCC(=O)NCCOCCOCCC(=O)NCCOCCOCCC(=O)NCCCC[C@H](NC(=O)[C@H](CC(=O)O)NC(=O)[C@H](CO)NC(=O)[C@@H](NC(=O)[C@H](Cc1ccccc1)NC(=O)[C@H](CO)NC(=O)CNC(=O)[C@H](CCC(N)=O)NC(=O)C(C)(C)NC(=O)[C@@H](N)Cc1c[nH]cn1)[C@@H](C)O)C(=O)N[C@@H](CO)C(=O)N[C@@H](CCCCN)C(=O)N[C@H](C(=O)N[C@@H](CC(C)C)C(=O)N[C@@H](CC(=O)O)C(=O)N[C@@H](CO)C(=O)N[C@@H](CCCNC(=N)N)C(=O)N[C@@H](C)C(=O)N[C@@H](C)C(=O)N[C@@H](CCC(N)=O)C(=O)N[C@@H](CC(=O)O)C(=O)N[C@@H](Cc1ccccc1)C(=O)N[C@H](C(=O)N[C@@H](CCC(=O)O)C(=O)N[C@@H](Cc1c[nH]c2ccccc12)C(=O)N[C@H](C(=O)N[C@@H](C)C(=O)N[C@@H](CC(N)=O)C(=O)N[C@H](C(N)=O)[C@@H](C)O)[C@@H](C)CC)C(C)C)[C@@H](C)CC)C(=O)O` [Peptide 395], in experiment [1] (Table 9, peptides modified at position 10, geometric mean, CHO cells), the EC50 is 9.55 pM.

For the molecule `CC[C@H](C)[C@H](NC(=O)[C@H](Cc1c[nH]c2ccccc12)NC(=O)[C@H](CCCCNC(=O)COCCOCCNC(=O)COCCOCCNC(=O)CC[C@H](NC(=O)CCCCCCCCCCCCCCCCC(=O)O)C(=O)O)NC(=O)[C@@H](NC(=O)[C@H](Cc1ccccc1)NC(=O)[C@H](CC(=O)O)NC(=O)[C@H](CCC(N)=O)NC(=O)[C@H](C)NC(=O)[C@H](C)NC(=O)[C@H](CCC(N)=O)NC(=O)[C@H](CO)NC(=O)[C@H](CC(=O)O)NC(=O)[C@H](CC(C)C)NC(=O)[C@](C)(Cc1ccccc1)NC(=O)[C@H](CCCCN)NC(=O)[C@H](CO)NC(=O)[C@@H](NC(=O)[C@H](CC(=O)O)NC(=O)[C@H](CO)NC(=O)[C@@H](NC(=O)[C@](C)(Cc1ccccc1)NC(=O)[C@H](CO)NC(=O)CNC(=O)[C@H](CCC(N)=O)NC(=O)C(C)(C)NC(=O)[C@@H](N)Cc1c[nH]cn1)[C@@H](C)O)C(C)C)C(C)C)C(=O)N[C@@H](C)C(=O)N[C@@H](CC(N)=O)C(=O)N[C@H](C(N)=O)[C@@H](C)O` [Peptide 348] (H-H[Aib]QGS[αMeF]TSDVSK[αMeF]LDSQAAQDFVK([AEEA-AEEA-γGlu-C18 diacid])WIANT-NH2; N-terminus assumed), the “% Relative Potency Ratio” value in experiment [2] worked out at 116.0.

`CC[C@H](C)[C@H](NC(=O)[C@H](Cc1c[nH]c2ccccc12)NC(=O)[C@H](CCCCNC(=O)COCCOCCNC(=O)COCCOCCNC(=O)CC[C@H](NC(=O)CC[C@H](NC(=O)CCCCCCCCCCCCCCCCCCC(=O)O)C(=O)O)C(=O)O)NC(=O)[C@@H](NC(=O)[C@](C)(Cc1ccccc1)NC(=O)[C@H](CC(=O)O)NC(=O)[C@H](CCC(N)=O)NC(=O)[C@H](C)NC(=O)[C@H](C)NC(=O)[C@H](CCCNC(=N)N)NC(=O)[C@H](CO)NC(=O)[C@H](CC(=O)O)NC(=O)[C@H](CC(C)C)NC(=O)[C@](C)(Cc1ccccc1)NC(=O)[C@H](CCCCN)NC(=O)[C@H](CO)NC(=O)[C@@H](NC(=O)[C@H](CC(=O)O)NC(=O)[C@H](CO)NC(=O)[C@@H](NC(=O)[C@](C)(Cc1ccccc1)NC(=O)[C@H](CO)NC(=O)CNC(=O)[C@H](Cc1c[nH]cn1)NC(=O)C(C)(C)NC(=O)[C@@H](N)Cc1c[nH]cn1)[C@@H](C)O)C(C)C)C(C)C)C(=O)N[C@@H](C)C(=O)N[C@@H](CC(N)=O)C(=O)N[C@H](C(N)=O)[C@@H](C)O` [Peptide 374] (H-H[Aib]HGS[αMeF]TSDVSK[αMeF]LDSRAAQD[αMeF]VK([AEEA-AEEA-γGlu-γGlu-C20 diacid])WIANT-NH2; N-terminus assumed): in experiment [2], the “% Relative Potency Ratio” value is 1.2.

As to `CC[C@H](C)[C@H](NC(=O)[C@H](Cc1c[nH]c2ccccc12)NC(=O)[C@H](CCCCNC(=O)CC[C@H](NC(=O)CCCCCCCCCCCCCCCCCCC(=O)O)C(=O)O)NC(=O)[C@@H](NC(=O)[C@H](Cc1ccccc1)NC(=O)[C@H](CC(=O)O)NC(=O)[C@H](CCC(N)=O)NC(=O)[C@H](C)NC(=O)[C@H](C)NC(=O)[C@H](CCC(N)=O)NC(=O)[C@H](CO)NC(=O)[C@H](CC(=O)O)NC(=O)[C@H](CC(C)C)NC(=O)[C@](C)(Cc1ccccc1)NC(=O)[C@H](CCCCN)NC(=O)[C@H](CO)NC(=O)[C@@H](NC(=O)[C@H](CC(=O)O)NC(=O)[C@H](CO)NC(=O)[C@@H](NC(=O)[C@](C)(Cc1ccccc1)NC(=O)[C@H](CO)NC(=O)CNC(=O)[C@H](Cc1c[nH]cn1)NC(=O)C(C)(C)NC(=O)[C@@H](N)Cc1c[nH]cn1)[C@@H](C)O)C(C)C)C(C)C)C(=O)N[C@@H](C)C(=O)N[C@@H](CC(N)=O)C(=O)N[C@H](C(N)=O)[C@@H](C)O` [Peptide 354], the “% Relative Potency Ratio” value in experiment [2] worked out at 1.6.

As for `CC[C@H](C)[C@H](NC(=O)[C@H](Cc1c[nH]c2ccccc12)NC(=O)[C@H](CCCCNC(=O)COCCOCCNC(=O)COCCOCCNC(=O)CC[C@H](NC(=O)CCCCCCCCCCCCCCCCCCC(=O)O)C(=O)O)NC(=O)[C@@H](NC(=O)[C@H](Cc1ccccc1)NC(=O)[C@H](CC(=O)O)NC(=O)[C@H](CCC(N)=O)NC(=O)[C@H](C)NC(=O)[C@H](C)NC(=O)[C@H](CCC(N)=O)NC(=O)[C@H](CO)NC(=O)[C@H](CC(=O)O)NC(=O)[C@H](CC(C)C)NC(=O)[C@](C)(Cc1ccccc1)NC(=O)[C@H](CCCCN)NC(=O)[C@H](CO)NC(=O)[C@@H](NC(=O)[C@H](CC(=O)O)NC(=O)[C@H](CO)NC(=O)[C@@H](NC(=O)[C@](C)(Cc1ccccc1)NC(=O)[C@H](CO)NC(=O)CNC(=O)[C@H](Cc1c[nH]cn1)NC(=O)C(C)(C)NC(=O)[C@@H](N)Cc1c[nH]cn1)[C@@H](C)O)C(C)C)C(C)C)C(=O)N[C@@H](C)C(=O)N[C@@H](CC(N)=O)C(=O)N[C@H](C(N)=O)[C@@H](C)O` [Peptide 356] (H-H[Aib]HGS[αMeF]TSDVSK[αMeF]LDSQAAQDFVK([AEEA-AEEA-γGlu-C20 diacid])WIANT-NH2), the “% Relative Potency Ratio” value in experiment [2] amounted to 2.1.
